Experimental data published in patent publication US6562804B2, “Hair-growing agent” (Kyowa Hakko Kogyo Co., Ltd., priority 2001, dated 2003).

Tested on: mouse hair follicle epithelial cells
Test: Cell growth-promoting effect on cultured mouse hair follicle epithelial cells (MTT)
Format: cell-based
Details: C3H mouse hair follicle epithelial cells, 5 days culture, DMSO control = 100
Procedure: Mouse hair follicle epithelial cells were separated and cultured according to a modification of the method of Tanigaki, et al. [Archives of Dermatological Research, 284, 290-296 (1992)].
The skin on the back of a 4-days-old C3H mouse (Charles River Japan, Inc.) was cut off and treated with MEM (Eagle's Minimum Essential Medium) containing 500 units/ml Dispase (Godo Shusei Co., Ltd.) and 5% fetal calf serum (FCS) at 4° C. for 16 hours.
Then, the epidermis was stripped from the skin section, and the obtained dermis layer was treated with DMEM (Dulbecco's modified Eagle Medium) containing 0.25% Collagenase N-2 (Nitta Gelatin Co., Ltd.) and 10% FCS at 37° C. for one hour to obtain a dermis suspension. The dermis suspension was filtered through a 212-μm nylon mesh (Nippon Rikagaku Kikai Co., Ltd.) and the filtrate was centrifuged at 1000 rpm for 5 minutes to obtain pellets containing hair follicle tissue. To the pellets was added calcium/magnesium-free PBS (Dulbecco's Phosphate-Buffered Saline) and the pellets were suspended therein using a pipette. The resulting suspension was allowed to stand for 15 minutes to precipitate hair follicle tissue. The same procedure as above (addition of calcium/magnesium-free PBS, suspending by use of a pipette, and precipitation by allowing the suspension to stand for 15 minutes) was repeated three times using the obtained hair follicle tissue.
Then, the hair follicle tissue was treated with a solution containing 0.1% ethylenediaminetetraacetic acid (EDTA) and 0.25% trypsin (Gibco) at 37° C. for 5 minutes. To the resulting mixture was added DMEM containing 10% FCS to prepare a hair follicle tissue cell suspension having a density of 3×10^5 cells/ml. The hair follicle tissue cell suspension was put into wells of a 24-well collagen-coated plate (Iwaki Glass Co., Ltd.) in an amount of 1 ml/well, followed by culturing in 5% CO2 at 37° C. for 24 hours.
During the culturing, the medium was replaced with a fresh one every other day.
As a control, the cells were cultured in the same medium as above except that DMSO alone was added in an amount of 1/100 by volume in place of DMSO containing a phosphatidic acid, and/or procyanidin B-2 or dl-α-tocopherol.
The degree of cell growth was measured according to the method using MTT [3-(4,5-dimethylthiazol-2-yl)-2,5-diphenyl tetrazolium bromide]
To each well of the 24-well microplate (2 cm^2/well) was added a PBS solution of MTT (5 mg/ml) in an amount of 1/10 by volume based on 1 ml of the culture. The plate was shaken to make the mixture homogeneous, followed by culturing in 5% CO2 at 37° C. for 4 hours.

Compound | Relative cell growth rate based on the control as 100 (active ingredient 30 μmol/l) | Relative cell growth rate based on the control as 100 (active ingredient 1 μmol/l)
Cc1c(C)c2c(c(C)c1O)CCC(C)(CCCC(C)CCCC(C)CCCC(C)C)O2 (racemic) [dl-α-Tocopherol, dl-α-tocopherol, reference compound] | 184 | 
CCCCCCCCCCCCCCCCOCC(COP(=O)(O)O)OC(C)=O (centres unmarked) [1-O-hexadecyl-2-O-acetylglyceryl-3-phosphoric acid] |  | 155
CCCCCCCCCCCCCCCCOCC(COP(=O)(O)O)OC (centres unmarked) [1-O-hexadecyl-2-O-methylglyceryl-3-phosphoric acid] |  | 177
CCCCCCCC/C=C\CCCCCCCC(=O)OCC(COP(=O)(O)O)OC (centres unmarked) [1-O-oleoyl-2-O-methylglyceryl-3-phosphoric acid] |  | 163
Oc1cc(O)c2c(c1)O[C@H](c1ccc(O)c(O)c1)[C@H](O)[C@H]2c1c(O)cc(O)c2c1O[C@H](c1ccc(O)c(O)c1)[C@H](O)C2 [Procyanidin B-2, epicatechin-(4β→8)-epicatechin] | 310 | 
